Article PMC2810100 (Journal of medicinal chemistry, 2009)

Columns and labels:
CpIMPDH = conditions: cited from earlier work
recombinant CpIMPDH = molecular target: T1, recombinant CpIMPDH (Cryptosporidium parvum, UniProt Q8T6T2); format: biochemical; conditions: without BSA
T1 sequence (Q8T6T2 1-400): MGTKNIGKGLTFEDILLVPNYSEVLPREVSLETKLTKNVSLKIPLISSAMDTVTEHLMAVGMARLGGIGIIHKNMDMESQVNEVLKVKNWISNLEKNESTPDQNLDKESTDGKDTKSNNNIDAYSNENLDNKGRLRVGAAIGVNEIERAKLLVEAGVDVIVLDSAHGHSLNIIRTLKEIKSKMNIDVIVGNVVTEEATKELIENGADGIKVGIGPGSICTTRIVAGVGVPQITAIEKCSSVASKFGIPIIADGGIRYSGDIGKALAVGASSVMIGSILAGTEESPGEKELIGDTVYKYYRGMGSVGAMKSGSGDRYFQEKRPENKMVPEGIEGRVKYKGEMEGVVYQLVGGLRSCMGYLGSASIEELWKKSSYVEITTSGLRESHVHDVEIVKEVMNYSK

| SMILES | Mode of inhibition with respect to 1 (IMP) (CpIMPDH) | Mode of inhibition with respect to NAD+ (CpIMPDH) | Fold more potent than the (S)-enantiomer (33) (recombinant CpIMPDH) |
| --- | --- | --- | --- |
| CC(Oc1ccccc1)C(=O)Nc1ccc(Cl)cc1 (stereo not drawn) [Compound 5] | uncompetitive inhibition | noncompetitive (mixed) inhibition |  |
| C[C@@H](Oc1ccnc2ccccc12)c1cn(-c2ccc(Cl)c(Cl)c2)nn1 [Compound 32, (R)-4-(1-(1-(3,4-dichlorophenyl)-1H-1,2,3-triazol-4-yl)ethoxy)quinoline] |  |  | ~ 14 fold |
